Experimental findings from ChEMBL document CHEMBL4610048, “Design, synthesis, and evaluation of novel 4-amino-2-(4-benzylpiperazin-1-yl)methylbenzonitrile compounds as Zika inhibitors” (Bioorg Med Chem Lett, 2020) are described below.

Data set [1] has as its system Zika virus. In words: Antiviral activity against Zika virus infected in African green monkey Vero E6 cells assessed as inhibition of viral induced cytopathic effect at 10 uM relative to control. It is filed as functional. Conditions: Vero C1008. A general note: Damage to the host cells serves as the signal in cytopathic effect assays.
Data set [2] is described as follows: Cytotoxicity against African green monkey Vero E6 cells assessed as cell viability at 10 uM relative to control. It is filed as cell-based, Vero C1008. The conditions noted are these: chlorocebus sabaeus, read-out: Activity.
Data set [3] can be described thus: Cytotoxicity against African green monkey Vero E6 cells assessed as reduction in cell viability. It is filed as cell-based, Vero C1008. The conditions noted are these: chlorocebus sabaeus.
Data set [4] relates to Zika virus. In words: Antiviral activity against Zika virus infected in African green monkey Vero E6 cells assessed as reduction in viral induced cytopathic effect. The class given is functional, organism-based. Conditions: Vero C1008.
Data set [5] is described as follows: Selectivity index, ratio of CC50 for African green monkey Vero E6 cells to EC50 for Zika virus infected in African green monkey Vero E6 cells assessed as inhibition of viral induced cytopathic effect. It is filed as toxicity, Vero C1008. Conditions: read-out: Ratio CC50/EC50.
Data set [6] concerns Zika virus. In words: Antiviral activity against Zika virus infected in African green monkey Vero E6 cells assessed as suppression of viral envelope protein expression at 1.25 to 10 uM incubated for 96 hrs by Western blot analysis. The class given is functional, organism-based. Conditions: Vero C1008. (A western blot detects proteins with antibodies after separation by electrophoresis.)

For data set [7], the system named is Zika virus. The data set is described as follows: Antiviral activity against Zika virus infected in African green monkey Vero E6 cells assessed as suppression of viral RNA synthesis at 1.25 to 10 uM incubated for 96 hrs by qRT-PCR analysis. The conditions noted are these: Vero C1008. It is filed as functional, organism-based.
Data set [8] concerns Zika virus. In words: Antiviral activity against Zika virus infected in African green monkey Vero E6 cells assessed as suppression of viral envelope protein expression at 10 uM incubated for 96 hrs by Western blot analysis. Conditions: Vero C1008. The class given is functional, organism-based.
Data set [9] deals with Zika virus. In words: Antiviral activity against Zika virus infected in African green monkey Vero E6 cells assessed as suppression of viral RNA synthesis at 10 uM incubated for 96 hrs by qRT-PCR analysis. It is filed as functional, organism-based. The conditions noted are these: Vero C1008.
Data set [10] relates to Zika virus. The data set is described as follows: Antiviral activity against Zika virus infected in African green monkey Vero E6 cells assessed as suppression of viral envelope protein expression incubated for 96 hrs by Western blot analysis. The conditions noted are these: Vero C1008. It is filed as functional, organism-based.
The test system of data set [11] is Zika virus. In words: Antiviral activity against Zika virus infected in African green monkey Vero E6 cells assessed as suppression of viral RNA synthesis incubated for 96 hrs by qRT-PCR analysis. It is filed as functional, organism-based. Conditions: Vero C1008. On the technique in general: Real-time PCR tracks product formation cycle by cycle.
For data set [12], the system named is Zika virus. The data set is described as follows: Antiviral activity against Zika virus infected in African green monkey Vero E6 cells assessed as inhibition of viral induced cytopathic effect at 40 uM relative to control. It is filed as functional. Conditions: Vero C1008.
Data set [13] can be described thus: Cytotoxicity against African green monkey Vero E6 cells assessed as cell viability at 40 uM relative to control. Conditions: chlorocebus sabaeus, read-out: Activity. The class given is cell-based, Vero C1008.

Activity calls are given as the source filed them. The rule behind the calls is not given here. Where only a bound is given, the exact number is not on record here.

Take `CC(=O)N1CCN(c2ccc(C#N)c(CN3CCN(Cc4ccc(C(F)(F)F)cc4)CC3)c2)CC1`: in the data set on Zika virus [1], the inhibition (as a rule, the change of the read-out against control, counted positive when it falls) at 10 µM was found to be 15.1%. Besides, the viability at 10 µM in data set [2] worked out at 89.1%.

In the case of `COc1ccc(CN2CCN(Cc3cc(N4CCCN(C)CC4)ccc3C#N)CC2)cc1`, the inhibition at 10 µM with Zika virus [1] was determined as 59.2%. In [2], the viability at 10 µM came to 65.8%.

With `CN1CCCN(c2ccc(C#N)c(CN3CCN(Cc4ccc(C(F)(F)F)cc4)CC3)c2)CC1`, the inhibition at 10 µM in the data set with Zika virus [1] amounted to 47.5%. In addition, the viability at 10 µM in data set [2] came to 81.3%.

On to `CC(c1ccccc1)N1CCN(Cc2cc(N(C)CCN(C)C)ccc2C#N)CC1` (stereo not given), for which the inhibition at 10 µM in the data set with Zika virus [1] is 43%. Further, in data set [2], the viability at 10 µM came to 64.7%.

With `CN(CCc1ccccc1)c1ccc(C#N)c(CN2CCN(Cc3ccc(C(F)(F)F)cc3)CC2)c1`, the inhibition at 10 µM in the data set on Zika virus [1] was 35.1%. In data set [2], the viability at 10 µM stood at 73.6%.

On to `CN(C)CCN(C)c1ccc(C#N)c(CN2CCN(Cc3ccc(F)cc3)CC2)c1`, for which the inhibition at 10 µM in the data set with Zika virus [1] amounted to 60.7%. Also, the viability at 10 µM in [2] is 85.1%.

`CN1CCCN(c2ccc(C#N)c(CN3CCN(Cc4ccccc4)CC3)c2)CC1`: the inhibition at 10 µM in the data set with Zika virus [1] is 84.3%. In data set [2], the viability at 10 µM amounted to 93.6%. Further, the half-maximal cytotoxic concentration (CC50) (commonly the concentration that lowers cell viability or growth by half) in data set [3] is greater than 100 µM. Moreover, in the data set on Zika virus [4], the EC50 – broadly, the concentration that produces a half-maximal response – is 5.3 µM. For the same molecule, in [5], the selectivity ratio was greater than 19.

With `N#Cc1ccc(N2CCNCC2)cc1CN1CCN(Cc2ccc(C(F)(F)F)cc2)CC1`, the inhibition at 10 µM in the data set on Zika virus [1] turned out to be 0.5%. In addition, the viability at 10 µM in data set [2] came out at 89%.

As for `CN1CCCN(c2ccc(C#N)c(CN3CCN(Cc4ccc(C#N)cc4)CC3)c2)CC1`, in the data set on Zika virus [1], the inhibition at 10 µM turned out to be 77.4%. The viability at 10 µM in [2] came out at 76%. Besides, the CC50 in data set [3] was greater than 100 µM. Further, the concentration giving a half-maximal response (EC50) in the data set on Zika virus [4] stood at 4.4 µM. Further, the selectivity ratio in [5] was greater than 22. Further, the inhibition result in the data set on Zika virus [6] and in the data set with Zika virus [7] was “inactive” throughout.

Take `N#Cc1ccc(NCCCn2ccnc2)cc1CN1CCN(Cc2ccc(C(F)(F)F)cc2)CC1`: the inhibition at 10 µM in the data set with Zika virus [1] is 66.5%. The viability at 10 µM in [2] is 70%. Besides, the cytotoxic concentration (CC50) in data set [3] was determined as 23.7 µM. Besides, in the data set on Zika virus [4], the EC50 is 4.9 µM. For the same molecule, in [5], the selectivity ratio was determined as 5. Also, the inhibition entry in the data set on Zika virus [8] and in the data set with Zika virus [9] was “Active” in each case.

Consider `CN1CCCN(c2ccc(C#N)c(CN3CCN(Cc4ccccc4C#N)CC3)c2)CC1`, for which the inhibition at 10 µM in the data set with Zika virus [1] was 36.2%. For the same molecule, the viability at 10 µM in data set [2] was determined as 87.1%.

Consider `N#Cc1ccc(NCCCn2ccnc2)cc1CN1CCN(Cc2ccc(F)cc2)CC1`, for which, in the data set on Zika virus [1], the inhibition at 10 µM is 58.3%. The viability at 10 µM in data set [2] is 96.5%.

For `CC(c1ccccc1)N1CCN(Cc2ccccc2C#N)CC1` (stereo not given), the inhibition at 10 µM in the data set with Zika virus [1] was determined as 35.8%. Moreover, in data set [2], the viability at 10 µM is 77.5%.

Consider `N#Cc1ccccc1CN1CCN(Cc2ccccc2C#N)CC1`, for which the inhibition at 10 µM with Zika virus [1] was found to be 34.7%. Besides, the viability at 10 µM in data set [2] is 93.8%.

Regarding `CN(C)CCOc1ccc(C#N)c(CN2CCN(Cc3ccc(C(F)(F)F)cc3)CC2)c1`, the inhibition at 10 µM in the data set with Zika virus [1] is 32.8%. For the same molecule, the viability at 10 µM in data set [2] is 80.1%.

For the molecule `CN(C)c1ccc(C#N)c(CN2CCN(Cc3ccc(C(F)(F)F)cc3)CC2)c1`, in the data set with Zika virus [1], the inhibition at 10 µM worked out at 19.2%. Further, in data set [2], the viability at 10 µM turned out to be 90.5%.

For `CC(c1ccccc1)N1CCN(Cc2cc(N3CCCN(C)CC3)ccc2C#N)CC1` (stereo not given), the inhibition at 10 µM with Zika virus [1] is 26.7%. Moreover, the viability at 10 µM in data set [2] amounted to 55.1%.

Take `CN(C)CCN(C)c1ccc(C#N)c(CN2CCN(Cc3cccc(Cl)c3)CC2)c1`: the inhibition at 10 µM with Zika virus [1] came out at 54.8%. Besides, the viability at 10 µM in [2] stood at 73.6%.

As to `CN1CCCN(c2ccc(C#N)c(CN3CCN(Cc4ccc(F)cc4)CC3)c2)CC1`, the inhibition at 10 µM in the data set on Zika virus [1] came to 55.1%. The viability at 10 µM in [2] was 79.3%.

Take `CN(C)CCN(C)c1ccc(C#N)c(CN2CCN(Cc3ccc(Cl)cc3)CC2)c1`: the inhibition at 10 µM with Zika virus [1] was determined as 50.9%. The viability at 10 µM in data set [2] came to 82.1%.

`CN(C)CCN(C)c1ccc(C#N)c(CN2CCN(Cc3ccccc3Cl)CC2)c1`: in the data set on Zika virus [1], the inhibition at 10 µM was determined as 70.4%. Moreover, the viability at 10 µM in [2] turned out to be 86.1%. The CC50 in data set [3] was greater than 100 µM. In addition, the concentration giving a half-maximal response (EC50) in the data set on Zika virus [4] came out at 5.1 µM. For the same molecule, the selectivity ratio in data set [5] is greater than 20. Also, the inhibition result with Zika virus [10] and in the data set on Zika virus [11] was “Dose-dependent effect” in each case.

For the molecule `N#Cc1ccc(CN2CCN(Cc3ccc(C#N)cc3)CC2)cc1`, the inhibition at 10 µM with Zika virus [1] was found to be 12.6%. Also, in [2], the viability at 10 µM worked out at 89.6%.

Take `CN(C)CCN(C)c1ccc(C#N)c(CN2CCN(C3CCc4ccccc4C3)CC2)c1` (stereo not given): the inhibition at 10 µM with Zika virus [1] was 81.8%. Further, the viability at 10 µM in data set [2] came to 67.8%.

Regarding `NC(=O)c1ncn([C@@H]2O[C@H](CO)[C@@H](O)[C@H]2O)n1` [RIBAVIRIN], the inhibition at 40 µM in the data set with Zika virus [12] was 37%. Further, the viability at 40 µM in data set [13] came to 94.5%. For the same molecule, the CC50 in data set [3] is greater than 100 µM. In addition, the EC50 in the data set on Zika virus [4] is 33 µM. In addition, the selectivity ratio in [5] is greater than 3.

As to `N#Cc1ccc(NCCN2CCOCC2)cc1CN1CCN(Cc2ccc(C(F)(F)F)cc2)CC1`, in the data set with Zika virus [1], the inhibition at 10 µM came out at 47.5%. For the same molecule, the viability at 10 µM in data set [2] was 79.2%.

As to `CN1CCN(c2ccc(C#N)c(CN3CCN(Cc4ccc(C(F)(F)F)cc4)CC3)c2)CC1`, the inhibition at 10 µM in the data set on Zika virus [1] was 0.3%. Also, the viability at 10 µM in [2] was 84.5%.

Turning to `N#Cc1ccc(NCCn2cccc2)cc1CN1CCN(Cc2ccc(C(F)(F)F)cc2)CC1`, the inhibition at 10 µM in the data set with Zika virus [1] stood at 56.2%. Besides, the viability at 10 µM in data set [2] was determined as 75.7%.

For the molecule `CN(C)CCN(C)c1ccc(C#N)c(CN2CCN(Cc3ccc(C#N)cc3)CC2)c1`, the inhibition at 10 µM in the data set on Zika virus [1] is 75.5%. In addition, in data set [2], the viability at 10 µM amounted to 77.4%. In addition, the cytotoxic concentration (CC50) in data set [3] was determined as 66 µM. The EC50 in the data set with Zika virus [4] is 5.6 µM. In addition, in data set [5], the selectivity ratio turned out to be 10.
